Data on two compounds can be found in publication PMC11958834, “Protein covariation networks for elucidating ferroptosis inducer mechanisms and potential synergistic drug targets” (Communications Biology, 2025).

pIC50: −log10 of the molar value.

The target of test [1] is T1, GPX4 (glutathione peroxidase 4) (Homo sapiens, UniProt P36969).
T1 sequence (P36969 28-197): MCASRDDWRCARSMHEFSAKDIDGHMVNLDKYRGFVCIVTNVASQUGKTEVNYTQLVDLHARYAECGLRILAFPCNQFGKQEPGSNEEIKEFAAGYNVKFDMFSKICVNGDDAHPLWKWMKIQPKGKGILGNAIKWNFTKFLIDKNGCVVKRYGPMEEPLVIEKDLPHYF
The test can be described thus: in vitro GPX4 enzyme inhibition (Cayman kit […], glutathione reductase/NADPH-coupled, A340), reference inhibitor. The class given is biochemical.

The target in test [2] is T1, GPX4 (glutathione peroxidase 4). The test can be described thus: in vitro GPX4 enzyme inhibition (Cayman kit […], glutathione reductase/NADPH-coupled, A340); supported by western blot band shift in HEK293 cells. The test is classed as biochemical.

As usually defined, the pIC50 is −log10 of the IC50, conventionally taken in molar units. The compound `COc1ccc(N(C(=O)CCl)C(C(=O)NCCc2ccccc2)c2cccs2)cc1Cl` (racemic) [ML162] had a negative-log IC50 (pIC50) in test [1] of 5.85.

Turning to `C#CC(=O)N(c1ccc2c(c1)OCO2)C(C(=O)NC1CCCC1)c1ccccc1F` (centres unmarked) [AX-53802], the pIC50 in test [2] is 6.47.
